ChEMBL document CHEMBL3085656, “A medicinal chemistry perspective for targeting histone H3 lysine-79 methyltransferase DOT1L” (J Med Chem, 2013)

Experiments:
cells [1] = conditions: Homo sapiens, MLL
cells [2] = conditions: Homo sapiens, MLL; remark: listed apart in the source
MOLM-13 = assay: cells; conditions: Homo sapiens
THP-1 = assay: cells; conditions: Homo sapiens
MV4-11 = assay: cells; conditions: Homo sapiens

EC50 (cells [1])	EC50 (cells [2])	EC50 (MOLM-13)	EC50 (THP-1)	EC50 (MV4-11)	Compound
700 nM	700 nM	4 nM	4 nM	4 nM	CC(C)N(CCCNC(=O)Nc1ccc(C(C)(C)C)cc1)C[C@H]1O[C@@H](n2ccc3c(N)ncnc32)[C@H](O)[C@@H]1O
–	–	4 nM	4 nM	4 nM	CC(C)N(C[C@H]1O[C@@H](n2cnc3c(N)ncnc32)[C@H](O)[C@@H]1O)[C@H]1C[C@@H](CCc2nc3cc(C(C)(C)C)ccc3[nH]2)C1 [PINOMETOSTAT]
